Entries after “also recorded” stand apart in the source; their conditions may differ.
Columns and labels:
human dermal fibroblasts = test: β-galactosidase staining in a model of UVB-induced senescence; type: cell-based
Description: (§1) In order to verify the action of the shikimic acid as a protector against the process of cellular senescence induced by Ultraviolet Type-B (UVB) damage, the shikimic acid was tested in a model of UVB-induced senescence in human dermal fibroblasts. In this model, two days after being plated, the cells are irradiated with UVB. After three days, the cells are re-irradiated with UVB. Two days after the second irradiation, the cells are processed for analysis. The shikimic acid is incubated with the cells from 24 h before the first irradiation until the day they are analysed. To assess whether cells are senescent or not, two markers are used. On the one hand, β-galactosidase staining is carried out, which stains the senescent cells blue, since they have an abnormal lysosomal activity at pH 6. Furthermore, the expression of the HAS2 gene is quantified by means of the qPCR technique.

HAS2 gene = HAS2 gene expression by qPCR in a model of UVB-induced senescence; type: cell-based, human
Description: as §1

## COC1=C(OC)C(=O)C(CCCCCCCCCCO)=C(C)C1=O [idebenone]
Human dermal fibroblasts; UVB-irradiated cells treated with 2.5, 5, 10 µM idebenone, Figure 9
  protection against UVB damage-induced senescence (β-galactosidase staining): neither of these two comparative compounds is capable of protecting against UVB damage-induced senescence

## N#CC(=Cc1ccc(-c2cc(Cl)ccc2Cl)o1)C(=O)Nc1cccc2ncccc12 [AGK2]
Human dermal fibroblasts; UVB-irradiated cells, 10, 25, 50 mM shikimic acid + AGK2 2 µM, Figures 5 and 6
  effect of inhibitor on the protective role of shikimic acid on senescence: do not reverse the protective effect of shikimic acid on senescence

## O=C(Nc1ccc(O)c(C(=O)O)c1)c1cccc(NC(=O)c2ccco2)c1 [OSS128167]
Human dermal fibroblasts; UVB-irradiated cells, 10, 25, 50 mM shikimic acid + OSS128167 200 µM, Figures 7 and 8
  effect of inhibitor on the protective role of shikimic acid on senescence: do not reverse the protective effect of shikimic acid on senescence

## O=C(O)CCCCC1CCSS1 (centres unmarked) [lipoic acid]
Human dermal fibroblasts; UVB-irradiated cells treated with 50, 100, 200 µM lipoic acid, Figure 10
  protection against UVB damage-induced senescence (β-galactosidase staining): neither of these two comparative compounds is capable of protecting against UVB damage-induced senescence

## NC(=O)C1CCCc2c1[nH]c1ccc(Cl)cc21 (centres unmarked) [EX-527]
Human dermal fibroblasts; UVB-irradiated cells, 10, 25, 50 mM shikimic acid + EX-527 1 µM, Figure 3
  effect of inhibitor on the protective role of shikimic acid on senescence (β-galactosidase staining): capable of reversing the effect of shikimic acid on senescence
HAS2 gene; UVB-irradiated cells, shikimic acid (SX) + EX-527 1 µM versus SX only, Figure 4
  HAS2 gene expression with shikimic acid + inhibitor: reversed to a lesser extent

## O=C(O)C1=CC(O)C(O)C(O)C1 (centres unmarked) [shikimic acid, 3,4,5-trihydroxy-1-cyclohexene-1-carboxylic acid]
Human dermal fibroblasts; UVB-irradiated human dermal fibroblasts treated with 10, 25, 50 mM shikimic acid, Figure 1
  senescent cells (β-galactosidase staining): this increase in senescence does not occur; also recorded: more effective than other compounds such as idebenone or lipoic acid
HAS2 gene; UVB-irradiated human dermal fibroblasts treated with 10, 25, 50 mM shikimic acid, Figure 2
  HAS2 gene expression: this decrease is reversed in gene expression

— patent EP3808411A1, “COSMETIC COMPOSITIONS AND USE THEREOF” (Mesoestetic Pharma Group, S.L., priority 2019, dated 2020)
